Data published in article PMC9172056 (Journal of medicinal chemistry, 2022).
Like-named read-outs stand apart in the source and are kept apart here.

Assays:
[1] = tested on: entry of SARS-CoV-2 (pseudotyped lentivirus with S); assay: organism not typed; type: cell-based; settings: read-out: EC50 inhibition of SARS-CoV-2 entry
in vitro = settings: cat
SARS-CoV-2 3CL^pro = SARS-CoV-2 3CL^pro (Severe acute respiratory syndrome coronavirus 2, UniProt P0DTD1); assay: biochemical; type: biochemical
MERS-CoV 3CL^pro = MERS-CoV 3CL^pro (Middle East respiratory syndrome-related coronavirus, UniProt K9N7C7); assay: biochemical
CRFK cells = settings: cat
SARS-CoV-2 replicon [2] = settings: read-out: EC50 SARS-CoV-2 replicon assay, previously reported; cited from earlier work
SARS-CoV-2 replicon [3] = type: cell-based; settings: read-out: EC50 SARS-CoV-2 replicon assay

MERS-CoV 3CL^pro, sequence (K9N7C7 3248-3553 limits assumed): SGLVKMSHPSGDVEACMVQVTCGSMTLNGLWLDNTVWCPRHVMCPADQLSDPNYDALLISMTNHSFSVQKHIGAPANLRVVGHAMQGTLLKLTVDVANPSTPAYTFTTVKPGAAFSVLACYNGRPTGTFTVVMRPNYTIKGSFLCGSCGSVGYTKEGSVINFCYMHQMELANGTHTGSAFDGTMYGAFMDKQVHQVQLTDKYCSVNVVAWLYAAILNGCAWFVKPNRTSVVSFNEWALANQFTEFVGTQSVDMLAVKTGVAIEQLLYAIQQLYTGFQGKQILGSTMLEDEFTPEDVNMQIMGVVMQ

CC(C)C[C@H](NC(=O)OC1CC2(CCN(C(=O)OC(C)(C)C)CC2)C1)C(=O)N[C@H](C=O)C[C@H]1CCNC1=O [Compound 7b, tert-Butyl 2-((((S)-4-methyl-1-oxo-1-(((S)-1-oxo-3-((R)-2-oxopyrrolidin-3-yl)propan-2-yl)amino)pentan-2-yl)carbamoyl)oxy)-7-azaspiro[3.5]nonane-7-carboxylate]
EC50 [1]: 2000 to 10000 nM | CC50 (in vitro): > 100000 nM | fold lower IC50 than compound 1b (SARS-CoV-2 3CL^pro): > 9 fold

CC(C)C[C@H](NC(=O)OC1CC2(CCN(C(=O)OC(C)(C)C)CC2)C1)C(=O)N[C@@H](C[C@H]1CCNC1=O)C(O)S(=O)(=O)O (stereo partly drawn) [Compound 7c, Sodium (2S)-2-((S)-2-((((7-(tert-butoxycarbonyl)-7-azaspiro[3.5]nonan-2-yl)oxy)carbonyl)amino)-4-methylpentanamido)-1-hydroxy-3-((R)-2-oxopyrrolidin-3-yl)propane-1-sulfonate]
EC50 [1]: 2000 to 10000 nM | IC50 (MERS-CoV 3CL^pro): 950 ± 210 nM | CC50 (in vitro): > 100000 nM | IC50 (SARS-CoV-2 3CL^pro): 290 ± 20 nM

CC(C)C[C@H](NC(=O)OC1CC2(CCN(C(=O)Cc3ccccc3)CC2)C1)C(=O)N[C@@H](C[C@H]1CCNC1=O)C(O)S(=O)(=O)O (stereo partly drawn) [Compound 9c, Sodium (2S)-1-hydroxy-2-((S)-4-methyl-2-((((7-(2-phenylacetyl)-7-azaspiro[3.5]nonan-2-yl)oxy)carbonyl)amino)pentanamido)-3-((R)-2-oxopyrrolidin-3-yl)propane-1-sulfonate]
IC50 (MERS-CoV 3CL^pro): 610 ± 130 nM | CC50 (in vitro): > 100000 nM | IC50 (SARS-CoV-2 3CL^pro): 290 ± 60 nM

CC(C)C[C@H](NC(=O)OC1CC2(CCN(S(C)(=O)=O)CC2)C1)C(=O)N[C@@H](C[C@H]1CCNC1=O)C(O)S(=O)(=O)O (stereo partly drawn) [Compound 10c, Sodium (2S)-1-hydroxy-2-((S)-4-methyl-2-((((7-(methylsulfonyl)-7-azaspiro[3.5]nonan-2-yl)oxy)carbonyl)amino)pentanamido)-3-((R)-2-oxopyrrolidin-3-yl)propane-1-sulfonate]
IC50 (MERS-CoV 3CL^pro): 330 ± 40 nM | CC50 (in vitro): > 100000 nM | IC50 (SARS-CoV-2 3CL^pro): 240 ± 30 nM

CC(C)C[C@H](NC(=O)OC1CC2(CCN(C#N)CC2)C1)C(=O)N[C@@H](C[C@H]1CCNC1=O)C(O)S(=O)(=O)O (stereo partly drawn) [Compound 11c, Sodium (2S)-2-((S)-2-((((7-cyano-7-azaspiro[3.5]nonan-2-yl)oxy)carbonyl)amino)-4-methylpentanamido)-1-hydroxy-3-((R)-2-oxopyrrolidin-3-yl)propane-1-sulfonate]
IC50 (MERS-CoV 3CL^pro): 630 ± 180 nM | CC50 (in vitro): > 100000 nM | IC50 (SARS-CoV-2 3CL^pro): 390 ± 30 nM

CC(C)C[C@H](NC(=O)OC1CN(C(=O)OC(C)(C)C)C1)C(=O)N[C@@H](C[C@H]1CCNC1=O)C(O)S(=O)(=O)O (stereo partly drawn) [Compound 12c, Sodium (2S)-2-((S)-2-((((1-(tert-butoxycarbonyl)azetidin-3-yl)oxy)carbonyl)amino)-4-methylpentanamido)-1-hydroxy-3-((R)-2-oxopyrrolidin-3-yl)propane-1-sulfonate]
IC50 (MERS-CoV 3CL^pro): 2550 ± 920 nM | CC50 (in vitro): > 100000 nM | IC50 (SARS-CoV-2 3CL^pro): 3050 ± 350 nM

CC(C)C[C@H](NC(=O)OC1(C)CN(C(=O)OC(C)(C)C)C1)C(=O)N[C@@H](C[C@H]1CCNC1=O)C(O)S(=O)(=O)O (stereo partly drawn) [Compound 13c, Sodium (2S)-2-((S)-2-((((1-(tert-butoxycarbonyl)-3-methylazetidin-3-yl)oxy)carbonyl)amino)-4-methylpentanamido)-1-hydroxy-3-((R)-2-oxopyrrolidin-3-yl)propane-1-sulfonate]
IC50 (MERS-CoV 3CL^pro): 4300 ± 280 nM | CC50 (in vitro): > 100000 nM | IC50 (SARS-CoV-2 3CL^pro): 2500 ± 570 nM

CC(C)C[C@H](NC(=O)OCC1CN(C(=O)OC(C)(C)C)C1)C(=O)N[C@H](C=O)C[C@H]1CCNC1=O [Compound 14b, tert-Butyl 3-(((((S)-4-methyl-1-oxo-1-(((S)-1-oxo-3-((R)-2-oxopyrrolidin-3-yl)propan-2-yl)amino)pentan-2-yl)carbamoyl)oxy)methyl)azetidine-1-carboxylate]
EC50 [1]: 2000 to 10000 nM | CC50 (in vitro): > 100000 nM | fold better IC50 than the 12b/12c pair (SARS-CoV-2 3CL^pro): > 6 fold | fold more potent than 17b (SARS-CoV-2 3CL^pro): 12 fold

CC(C)C[C@H](NC(=O)OCC1CN(C(=O)OC(C)(C)C)C1)C(=O)N[C@@H](C[C@H]1CCNC1=O)C(O)S(=O)(=O)[O-].[Na+] (stereo partly drawn) [Compound 14c, Sodium (2S)-2-((S)-2-((((1-(tert-butoxycarbonyl)azetidin-3-yl)methoxy)carbonyl)amino)-4-methylpentanamido)-1-hydroxy-3-((R)-2-oxopyrrolidin-3-yl)propane-1-sulfonate]
EC50 [1]: 2000 to 10000 nM | IC50 (MERS-CoV 3CL^pro): 440 ± 60 nM | CC50 (in vitro): > 100000 nM | IC50 (SARS-CoV-2 3CL^pro): 500 ± 140 nM | fold better IC50 than the 12b/12c pair (SARS-CoV-2 3CL^pro): > 6 fold

CC(C)C[C@H](NC(=O)OCC1CN(C(=O)Cc2ccccc2)C1)C(=O)N[C@@H](C[C@H]1CCNC1=O)C(O)S(=O)(=O)O (stereo partly drawn) [Compound 15c, Sodium (2S)-1-hydroxy-2-((S)-4-methyl-2-((((1-(2-phenylacetyl)azetidin-3-yl)methoxy)carbonyl)amino)pentanamido)-3-((R)-2-oxopyrrolidin-3-yl)propane-1-sulfonate]
IC50 (MERS-CoV 3CL^pro): 180 ± 10 nM | CC50 (in vitro): > 100000 nM | IC50 (SARS-CoV-2 3CL^pro): 760 ± 80 nM

CC(C)C[C@H](NC(=O)OCC1CN(C(=O)C2CC3CCC2C3)C1)C(=O)N[C@@H](C[C@H]1CCNC1=O)C(O)S(=O)(=O)O (stereo partly drawn) [Compound 16c, Sodium (2S)-2-((2S)-2-((((1-(bicyclo[2.2.1]heptane-2-carbonyl)azetidin-3-yl)methoxy)carbonyl)amino)-4-methylpentanamido)-1-hydroxy-3-((R)-2-oxopyrrolidin-3-yl)propane-1-sulfonate]
IC50 (MERS-CoV 3CL^pro): 170 ± 30 nM | CC50 (in vitro): > 100000 nM | IC50 (SARS-CoV-2 3CL^pro): 490 ± 20 nM

CC(C)C[C@H](NC(=O)OCC1CN(S(C)(=O)=O)C1)C(=O)N[C@@H](C[C@H]1CCNC1=O)C(O)S(=O)(=O)O (stereo partly drawn) [Compound 17c, Sodium (2S)-1-hydroxy-2-((S)-4-methyl-2-((((1-(methylsulfonyl)azetidin-3-yl)methoxy)carbonyl)amino)pentanamido)-3-((R)-2-oxopyrrolidin-3-yl)propane-1-sulfonate]
IC50 (MERS-CoV 3CL^pro): 1350 ± 210 nM | CC50 (in vitro): > 100000 nM | IC50 (SARS-CoV-2 3CL^pro): 4050 ± 780 nM

[2H]C([2H])(OC(=O)N[C@@H](CC(C)C)C(=O)N[C@@H](C[C@H]1CCNC1=O)C(O)S(=O)(=O)[O-])C1CN(C(=O)OC(C)(C)C)C1.[Na+] (stereo partly drawn) [Compound 18c, Sodium (2S)-2-((S)-2-((((1-(tert-butoxycarbonyl)azetidin-3-yl)methoxy-d2)carbonyl)amino)-4-methylpentanamido)-1-hydroxy-3-((R)-2-oxopyrrolidin-3-yl)propane-1-sulfonate]
IC50 (MERS-CoV 3CL^pro): 370 ± 60 nM | CC50 (in vitro): > 100000 nM | IC50 (SARS-CoV-2 3CL^pro): 340 ± 10 nM

GC376
CC50 (CRFK cells): > 100000 nM | EC50 (SARS-CoV-2 replicon [2]): 20 nM | EC50 (SARS-CoV-2 replicon [3]): 27 ± 10 nM
